Some test systems named below: CAKI-1 renal; CCRF-CEM leukemia; DU-145 prostate; HOP-92 NSCLC; HS 578T breast; KM12 colon; MDA-MB-231 breast; RXF 393 renal; SK-MEL-28 melanoma; UO-31 renal.
Holding throughout (experiment): DTP human tumour cell line panel, 48 h

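Briefly, cells in 96-well plates were exposed to five compound concentrations for 48 h, and endpoints were estimated by linear interpolation. GI50 is the concentration that inhibits growth by half. At the TGI there is no net growth.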

Results on eight compounds are retold here after PubChem BioAssay (NCI).

Turning to `COc1cc2cc(Oc3ccc(NC(=O)c4ccc(Cl)c(Cl)c4)cc3)c(C)nc2cc1OC`, the GI50 with CAKI-1 renal is 5.96 µM; in the assay with CCRF-CEM leukemia, 4.44 µM; in the assay with DU-145 prostate, more than 100 µM; in the assay with HOP-92 NSCLC it was 16.1 µM; with HS 578T breast, 7.24 µM; in the assay with KM12 colon, 12.7 µM. For the same compound, the GI50 with MDA-MB-231 breast is 9.89 µM; in the assay on RXF 393 renal it was 9.66 µM; with SK-MEL-28 melanoma it was more than 100 µM; in the assay with UO-31 renal it was 8.44 µM. In addition, the TGI with CAKI-1 renal, in the assay on CCRF-CEM leukemia, in the assay on DU-145 prostate, in the assay on HOP-92 NSCLC, with HS 578T breast and with KM12 colon was more than 100 µM each time. The TGI in the assay with MDA-MB-231 breast, with RXF 393 renal, with SK-MEL-28 melanoma and in the assay with UO-31 renal was more than 100 µM throughout.

Regarding `Oc1cc(-n2cccn2)c(O)cc1-n1cccn1`, the TGI with CAKI-1 renal is 53.8 µM; in the assay on CCRF-CEM leukemia, 19.6 µM; with DU-145 prostate, more than 69.5 µM; in the assay with HOP-92 NSCLC it was 39.8 µM; with HS 578T breast it was more than 100 µM; in the assay with KM12 colon, more than 86.5 µM. For the same compound, the TGI is 50.5 µM in the assay on MDA-MB-231 breast, 37.8 µM in the assay on RXF 393 renal, 64.9 µM in the assay with SK-MEL-28 melanoma and 54.2 µM in the assay with UO-31 renal.

Consider `Fc1ccc(/C=N/n2c(-c3ccc(F)c(Cl)c3)n[nH]c2=S)cc1`, for which the GI50 with CAKI-1 renal was 47.8 µM; in the assay with CCRF-CEM leukemia, 32.2 µM; in the assay with DU-145 prostate, 41.5 µM; in the assay on HOP-92 NSCLC, 15.1 µM; in the assay on HS 578T breast it was 28.8 µM; in the assay with KM12 colon, 43.6 µM. Moreover, the GI50 in the assay on MDA-MB-231 breast was 20.2 µM; in the assay with RXF 393 renal, 21.2 µM; with SK-MEL-28 melanoma, 42.1 µM; in the assay with UO-31 renal it was 18.9 µM. Besides, the TGI in the assay on CAKI-1 renal was more than 100 µM; in the assay with CCRF-CEM leukemia, 96.6 µM; in the assay on DU-145 prostate it was more than 100 µM; in the assay with HOP-92 NSCLC it was 34.6 µM; in the assay with HS 578T breast it was 97.3 µM; in the assay on KM12 colon, more than 100 µM. The TGI is 38.9 µM with MDA-MB-231 breast, 39.9 µM in the assay with RXF 393 renal, more than 100 µM with SK-MEL-28 melanoma and 41.5 µM in the assay with UO-31 renal.

Take `Cc1cc(C)c(C2CNCc3cc4c(cc32)CNCC4c2c(C)cc(C)cc2C)c(C)c1` (stereo not given): the GI50 with CAKI-1 renal was 4.22 µg/mL; with CCRF-CEM leukemia, 1.86 µg/mL; with DU-145 prostate it was 7.21 µg/mL; in the assay with HOP-92 NSCLC it was 11.8 µg/mL; in the assay on HS 578T breast, 3.43 µg/mL; in the assay on KM12 colon, 2.6 µg/mL. For the same compound, the GI50 is 2.42 µg/mL with MDA-MB-231 breast, 2.2 µg/mL in the assay on RXF 393 renal, 1.83 µg/mL in the assay with SK-MEL-28 melanoma and 2.04 µg/mL in the assay with UO-31 renal. Also, the TGI in the assay with CAKI-1 renal came out at 13.6 µg/mL; with CCRF-CEM leukemia, 5.07 µg/mL; in the assay with DU-145 prostate, 19.8 µg/mL; in the assay on HOP-92 NSCLC, 24.9 µg/mL; with HS 578T breast, 13.5 µg/mL; with KM12 colon, 6.74 µg/mL. Besides, the TGI in the assay with MDA-MB-231 breast stood at 11.4 µg/mL; in the assay with RXF 393 renal, 4.45 µg/mL; in the assay with SK-MEL-28 melanoma, 3.47 µg/mL; in the assay on UO-31 renal, 5.56 µg/mL.

Consider `COc1ccc2c(-c3ccnc(Nc4cccc(OC(F)(F)F)c4)n3)cnn2n1`, for which the GI50 in the assay with CAKI-1 renal is 0.877 µM; in the assay on CCRF-CEM leukemia, 1.09 µM; in the assay with DU-145 prostate, 1.35 µM; in the assay on HOP-92 NSCLC it was 0.801 µM; in the assay on HS 578T breast, 0.835 µM; in the assay on KM12 colon, 0.772 µM. In addition, the GI50 in the assay with MDA-MB-231 breast is 3.63 µM; in the assay on RXF 393 renal it was 1.74 µM; with SK-MEL-28 melanoma, 3.47 µM; with UO-31 renal it was 2.55 µM. The concentration for total growth inhibition (TGI) in the assay on CAKI-1 renal is more than 9.77 µM; with CCRF-CEM leukemia, more than 25 µM; in the assay with DU-145 prostate, 17.6 µM; with HOP-92 NSCLC, 7.11 µM; in the assay on HS 578T breast it was more than 9.95 µM; with KM12 colon it was 3.95 µM. The TGI was more than 25 µM in the assay with MDA-MB-231 breast, 6.66 µM with RXF 393 renal, more than 25 µM in the assay on SK-MEL-28 melanoma and more than 12.3 µM in the assay with UO-31 renal.

Consider `O=c1c2cc(F)ccc2sc2c(NCCCNCCO)nc3ccccc3c12`, for which the GI50 was 1.61 µM with CAKI-1 renal; 2.02 µM in the assay with CCRF-CEM leukemia; 1.72 µM with DU-145 prostate; 1.23 µM in the assay on HOP-92 NSCLC; 1.7 µM with HS 578T breast; 1.84 µM in the assay on KM12 colon. Moreover, the GI50 in the assay on MDA-MB-231 breast was 1.56 µM; with RXF 393 renal it was 1.49 µM; with SK-MEL-28 melanoma it was 1.75 µM; in the assay with UO-31 renal, 1.57 µM. Moreover, the TGI with CAKI-1 renal was found to be 2.97 µM; in the assay on CCRF-CEM leukemia, 4.76 µM; in the assay with DU-145 prostate it was 3.13 µM; with HOP-92 NSCLC, 3.14 µM; in the assay on HS 578T breast, 3.74 µM; in the assay with KM12 colon it was 3.52 µM. Further, the TGI in the assay with MDA-MB-231 breast amounted to 3.03 µM; in the assay with RXF 393 renal, 2.9 µM; with SK-MEL-28 melanoma, 3.25 µM; in the assay on UO-31 renal, 2.96 µM.

On to `Cc1[nH]c(-c2cc(N)ccc2Cl)c2c1C(=O)CCCC2`, for which the GI50 with CAKI-1 renal was 0.702 µM; with CCRF-CEM leukemia it was 1.06 µM; in the assay on DU-145 prostate, 13.1 µM; with HOP-92 NSCLC it was 1.93 µM; in the assay on HS 578T breast it was 2.11 µM; with KM12 colon it was 5.47 µM. The GI50 was 3.82 µM in the assay with MDA-MB-231 breast, 2.06 µM in the assay on RXF 393 renal, 6.5 µM with SK-MEL-28 melanoma and 0.477 µM with UO-31 renal. In addition, the TGI in the assay on CAKI-1 renal is 17.9 µM; in the assay on CCRF-CEM leukemia it was more than 100 µM; in the assay on DU-145 prostate, more than 100 µM; in the assay with HOP-92 NSCLC, 63.8 µM; in the assay with HS 578T breast, 17.8 µM; in the assay on KM12 colon, more than 100 µM. Also, the TGI with MDA-MB-231 breast was more than 100 µM; in the assay on RXF 393 renal it was 6.06 µM; in the assay on SK-MEL-28 melanoma it was more than 100 µM; with UO-31 renal, 15.1 µM.

As for `CCC(=O)Nc1ccc(N2C(=O)/C(=C/c3ccc(OC)cc3)N=C2c2ccccc2)cc1`, the GI50 in the assay on CAKI-1 renal is 6.4 µM; in the assay with CCRF-CEM leukemia it was more than 50 µM; in the assay with DU-145 prostate, 10.4 µM; in the assay with HOP-92 NSCLC, 0.0351 µM; in the assay on HS 578T breast it was 14.1 µM; with KM12 colon, 3.65 µM. The GI50 in the assay with MDA-MB-231 breast was 4.31 µM; with RXF 393 renal, 11.3 µM; in the assay on SK-MEL-28 melanoma, 14.6 µM; in the assay with UO-31 renal, 30 µM. The TGI in the assay on CAKI-1 renal is 21.7 µM; in the assay on CCRF-CEM leukemia, more than 50 µM; in the assay with DU-145 prostate, more than 50 µM; in the assay with HOP-92 NSCLC, 21.1 µM; in the assay on HS 578T breast, more than 50 µM; in the assay on KM12 colon it was more than 50 µM. The TGI was 14.5 µM in the assay with MDA-MB-231 breast, more than 50 µM with RXF 393 renal, more than 50 µM in the assay on SK-MEL-28 melanoma and more than 50 µM in the assay on UO-31 renal.
